This passage reports IC50 and toxicity to mice results from patent publication US6638973B2, “Taxane formulations” (FSU Research Foundation, Inc., priority 2000, dated 2003).

Like-named read-outs stand apart in the source and are kept apart here. Some results are limits rather than exact numbers.

One data set deals with HCT116 cells. The data set can be described thus: In vitro cytotoxicity measured by the cell colony formation assay. The class given is cell-based. As to conditions: colonies counted after 7 days, read-out: IN VITRO ID 50 (nm) HCT116. The essentials: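 Colony-forming survival was scored 7 days after a 72 h, 37 °C compound exposure followed by washout into fresh medium.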
The conditions of data set [1]: intravenous, concentrations required to deliver therapeutic doses of paclitaxel; cited from earlier work.
[2] abbreviates: HCT116 colony formation, 72 h drug incubation, Example 5, C-7 ester/C-10 hydroxy taxanes.
[3] abbreviates: HCT116 colony formation, 72 h drug incubation, Example 15, C-7 substituted acetate/C-10 hydroxy taxanes.
The mark [4] stands for this setting: HCT116 cells, 72 h drug incubation, ID50 = drug concentration producing 50% inhibition of colony formation.
Setting [5] is: HCT116 cells, 72 h incubation with drug, ID50 = drug concentration producing 50% inhibition of colony formation.
Where [6] appears, read: HCT116 colony formation, 72 h drug incubation, Example 20, C-10 substituted acetate/C-7 hydroxy taxanes.
The mark [7] stands for this setting: Homo sapiens, HCT-116, HCT116 colony formation, 72 h drug incubation, Example 5, C-7 ester/C-10 hydroxy taxanes.

Consider `CCCC(=O)O[C@H]1C[C@H]2OC[C@@]2(OC(C)=O)C2[C@H](OC(=O)c3ccccc3)[C@]3(O)C[C@H](OC(=O)[C@H](O)[C@@H](NC(=O)OC(C)(C)CC)c4ccco4)C(C)=C([C@@H](O)C(=O)[C@@]21C)C3(C)C` (some centres unmarked) [Compound 6272], for which the IC50 with HCT116 cells (setting [2]) was below 1 nM. On the same count and under the same terms, the result for `CCC(C)(C)OC(=O)N[C@@H](c1ccco1)[C@@H](O)C(=O)O[C@H]1C[C@@]2(O)[C@@H](OC(=O)c3ccccc3)C3[C@](C)(C(=O)[C@H](O)C(=C1C)C2(C)C)[C@@H](OC(=O)CC(C)C)C[C@H]1OC[C@@]31OC(C)=O` (some centres unmarked) [Compound 6282] reads below 10 nM. For `COCC(=O)O[C@H]1C[C@H]2OC[C@@]2(OC(C)=O)C2[C@H](OC(=O)c3ccccc3)[C@]3(O)C[C@H](OC(=O)[C@H](O)[C@@H](NC(=O)OC(C)(C)C)c4ccco4)C(C)=C([C@@H](O)C(=O)[C@@]21C)C3(C)C` (some centres unmarked) [Compound 6326], in the data set with HCT116 cells (setting [3]), the IC50 was below 1 nM. In the case of `CC(=O)O[C@@]12CO[C@@H]1C[C@H](OC(=O)C(C)C)[C@@]1(C)C(=O)[C@H](O)C3=C(C)[C@@H](OC(=O)[C@H](O)[C@@H](NC(=O)OC(C)(C)C)c4cccs4)C[C@@](O)([C@@H](OC(=O)c4ccccc4)C12)C3(C)C` (some centres unmarked) [Compound 6333], in the data set with HCT116 cells (setting [2]), the IC50 was below 1 nM. Consider `CCCCC(=O)O[C@H]1C[C@H]2OC[C@@]2(OC(C)=O)C2[C@H](OC(=O)c3ccccc3)[C@]3(O)C[C@H](OC(=O)[C@H](O)[C@@H](NC(=O)OC(C)(C)CC)c4ccco4)C(C)=C([C@@H](O)C(=O)[C@@]21C)C3(C)C` (some centres unmarked) [Compound 6343], for which the IC50 in the data set on HCT116 cells (setting [2]) was below 10 nM. With `CCC(C)(C)OC(=O)N[C@@H](c1ccco1)[C@@H](O)C(=O)O[C@H]1C[C@@]2(O)[C@@H](OC(=O)c3ccccc3)C3[C@](C)(C(=O)[C@H](O)C(=C1C)C2(C)C)[C@@H](OC(=O)COC(C)=O)C[C@H]1OC[C@@]31OC(C)=O` (some centres unmarked) [Compound 6353], the IC50 in the data set with HCT116 cells (setting [3]) is below 1 nM.

As to `CCC(=O)O[C@H]1C[C@H]2OC[C@@]2(OC(C)=O)C2[C@H](OC(=O)c3ccccc3)[C@]3(O)C[C@H](OC(=O)[C@H](O)[C@@H](NC(=O)OC(C)(C)C)c4nccs4)C(C)=C([C@@H](O)C(=O)[C@@]21C)C3(C)C` (some centres unmarked) [Compound 6363], the IC50 in the data set with HCT116 cells (setting [2]) is below 10 nM. Consider `CCC(C)(C)OC(=O)N[C@@H](c1ccco1)[C@@H](O)C(=O)O[C@H]1C[C@@]2(O)[C@@H](OC(=O)c3ccccc3)C3[C@](C)(C(=O)[C@H](O)C(=C1C)C2(C)C)[C@@H](OC(=O)Nc1ccccc1)C[C@H]1OC[C@@]31OC(C)=O` (some centres unmarked) [Compound 6399], for which the IC50 with HCT116 cells (setting [4]) is below 10 nM. Take `CCC(C)(C)OC(=O)N[C@@H](c1ccco1)[C@@H](O)C(=O)O[C@H]1C[C@@]2(O)[C@@H](OC(=O)c3ccccc3)C3[C@](C)(C(=O)[C@H](O)C(=C1C)C2(C)C)[C@@H](OC(=O)Nc1ccc(F)c(F)c1)C[C@H]1OC[C@@]31OC(C)=O` (some centres unmarked) [Compound 6404]: the IC50 with HCT116 cells (setting [4]) is below 10 nM. In the case of `CCC(=O)O[C@H]1C[C@H]2OC[C@@]2(OC(C)=O)C2[C@H](OC(=O)c3ccccc3)[C@]3(O)C[C@H](OC(=O)[C@H](O)[C@@H](NC(=O)OC(C)(C)CC)c4ccco4)C(C)=C([C@@H](O)C(=O)[C@@]21C)C3(C)C` (some centres unmarked) [Compound 6424], the IC50 in the data set with HCT116 cells (setting [2]) was 21.7 nM.

For the compound `CCOC(=O)O[C@H]1C(=O)[C@@]2(C)C([C@H](OC(=O)c3ccccc3)[C@]3(O)C[C@H](OC(=O)[C@H](O)[C@@H](NC(=O)C(C)C)c4ccco4)C(C)=C1C3(C)C)[C@]1(OC(C)=O)CO[C@@H]1C[C@@H]2O` (some centres unmarked) [Compound 6466], the IC50 with HCT116 cells (setting [5]) is below 10 nM. Regarding `CCC(C)(C)OC(=O)NC(c1ccco1)C(O)C(=O)OC1CC2(O)C(OC(=O)c3ccccc3)C3C4(OC(C)=O)COC4CC(O)C3(C)C(=O)C(OC(=O)COC)C(=C1C)C2(C)C` (centres unmarked) [Compound 6515, N-Debenzoyl-N-tert-amyloxycarbonyl-3′-desphenyl-3′-(2-furyl)-10-methoxyacetyl taxol], the IC50 in the data set with HCT116 cells (setting [6]) was below 1 nM. Turning to `CCC(=O)O[C@H]1C(=O)[C@@]2(C)C([C@H](OC(=O)c3ccccc3)[C@]3(O)C[C@H](OC(=O)[C@H](O)[C@@H](NC(=O)OC(C)(C)CC)c4ccco4)C(C)=C1C3(C)C)[C@]1(OC(C)=O)CO[C@@H]1C[C@@H]2O` (some centres unmarked) [Compound 6522], the IC50 in the data set with HCT116 cells (HCT116 colony formation, 72 h drug incubation, Example 10, C-10 ester/C-7 hydroxy taxanes) is below 1 nM. Consider `C/C=C/C(=O)N[C@@H](c1cccs1)[C@@H](O)C(=O)O[C@H]1C[C@@]2(O)[C@@H](OC(=O)c3ccccc3)C3[C@](C)(C(=O)[C@H](O)C(=C1C)C2(C)C)[C@@H](OC(=O)OCc1ccccc1)C[C@H]1OC[C@@]31OC(C)=O` (some centres unmarked) [Compound 6566], for which, in the data set on HCT116 cells (setting [5]), the IC50 is below 10 nM. For `CCC(C)(C)OC(=O)N[C@@H](c1ccco1)[C@@H](O)C(=O)O[C@H]1C[C@@]2(O)[C@@H](OC(=O)c3ccccc3)C3[C@](C)(C(=O)[C@H](OC(=O)COC(C)=O)C(=C1C)C2(C)C)[C@@H](O)C[C@H]1OC[C@@]31OC(C)=O` (some centres unmarked) [Compound 6577], the IC50 with HCT116 cells (setting [6]) was below 1 nM. As to `C/C=C/C(=O)O[C@H]1C[C@H]2OC[C@@]2(OC(C)=O)C2[C@H](OC(=O)c3ccccc3)[C@]3(O)C[C@H](OC(=O)[C@H](O)[C@@H](NC(=O)OC(C)(C)C)c4cccs4)C(C)=C([C@@H](O)C(=O)[C@@]21C)C3(C)C` (some centres unmarked) [Compound 6686], the IC50 in the data set with HCT116 cells (setting [2]) was below 1 nM. As to `CCNC(=O)O[C@H]1C[C@H]2OC[C@@]2(OC(C)=O)C2[C@H](OC(=O)c3ccccc3)[C@]3(O)C[C@H](OC(=O)[C@H](O)[C@@H](NC(=O)OC(C)(C)C)c4ccco4)C(C)=C([C@@H](O)C(=O)[C@@]21C)C3(C)C` (some centres unmarked) [Compound 6696], the IC50 in the data set with HCT116 cells (setting [4]) was below 1 nM. Regarding `CC(=O)O[C@@]12CO[C@@H]1C[C@H](O)[C@@]1(C)C(=O)[C@H](O)C3=C(C)[C@@H](OC(=O)[C@H](O)[C@@H](NC(=O)OC(C)(C)C)c4ccccc4)C[C@@](O)([C@@H](OC(=O)c4ccccc4)[C@H]21)C3(C)C` [docetaxel, reference compound], the IC50 in the data set on HCT116 cells (setting [7]) came to 0.6 nM. Take `CC(=O)O[C@H]1C(=O)[C@@]2(C)[C@H]([C@H](OC(=O)c3ccccc3)[C@]3(O)C[C@H](OC(=O)[C@H](O)[C@@H](NC(=O)c4ccccc4)c4ccccc4)C(C)=C1C3(C)C)[C@]1(OC(C)=O)CO[C@@H]1C[C@@H]2O` [taxol, paclitaxel, reference compound]: the IC50 in the data set on HCT116 cells (setting [7]) came to 2.1 nM. Regarding `CC(=O)OCC(COC(C)=O)OC(C)=O` [triacetin, glyceryl triacetate], in data set [1], the toxicity to mice entry is reported as “toxic”.
